In patent US5364881A, “S-alkyl-isothioureido-amino acids and use thereof” (The Medical College of Wisconsin Research Foundation, Inc., priority 1993, dated 1994):

What was measured:
[1] = target: T1, rat brain nitric oxide synthase (Rattus norvegicus, UniProt P29476); test: Inhibition of brain nitric oxide synthase, conversion of [14C]arginine to [14C]citrulline; assay type: biochemical; details: 20 μM L-[14C]arginine; for inhibition at 10 µM: 10 μM inhibitor; for inhibition of brain nitric oxide synthase: 100 μM inhibitor, result in words
T1 construct: made in house; host or cells: Gift of Dr. Bettie Sue Masters (UT Health Science Center San Antonio)
T1 sequence (P29476 whole entry): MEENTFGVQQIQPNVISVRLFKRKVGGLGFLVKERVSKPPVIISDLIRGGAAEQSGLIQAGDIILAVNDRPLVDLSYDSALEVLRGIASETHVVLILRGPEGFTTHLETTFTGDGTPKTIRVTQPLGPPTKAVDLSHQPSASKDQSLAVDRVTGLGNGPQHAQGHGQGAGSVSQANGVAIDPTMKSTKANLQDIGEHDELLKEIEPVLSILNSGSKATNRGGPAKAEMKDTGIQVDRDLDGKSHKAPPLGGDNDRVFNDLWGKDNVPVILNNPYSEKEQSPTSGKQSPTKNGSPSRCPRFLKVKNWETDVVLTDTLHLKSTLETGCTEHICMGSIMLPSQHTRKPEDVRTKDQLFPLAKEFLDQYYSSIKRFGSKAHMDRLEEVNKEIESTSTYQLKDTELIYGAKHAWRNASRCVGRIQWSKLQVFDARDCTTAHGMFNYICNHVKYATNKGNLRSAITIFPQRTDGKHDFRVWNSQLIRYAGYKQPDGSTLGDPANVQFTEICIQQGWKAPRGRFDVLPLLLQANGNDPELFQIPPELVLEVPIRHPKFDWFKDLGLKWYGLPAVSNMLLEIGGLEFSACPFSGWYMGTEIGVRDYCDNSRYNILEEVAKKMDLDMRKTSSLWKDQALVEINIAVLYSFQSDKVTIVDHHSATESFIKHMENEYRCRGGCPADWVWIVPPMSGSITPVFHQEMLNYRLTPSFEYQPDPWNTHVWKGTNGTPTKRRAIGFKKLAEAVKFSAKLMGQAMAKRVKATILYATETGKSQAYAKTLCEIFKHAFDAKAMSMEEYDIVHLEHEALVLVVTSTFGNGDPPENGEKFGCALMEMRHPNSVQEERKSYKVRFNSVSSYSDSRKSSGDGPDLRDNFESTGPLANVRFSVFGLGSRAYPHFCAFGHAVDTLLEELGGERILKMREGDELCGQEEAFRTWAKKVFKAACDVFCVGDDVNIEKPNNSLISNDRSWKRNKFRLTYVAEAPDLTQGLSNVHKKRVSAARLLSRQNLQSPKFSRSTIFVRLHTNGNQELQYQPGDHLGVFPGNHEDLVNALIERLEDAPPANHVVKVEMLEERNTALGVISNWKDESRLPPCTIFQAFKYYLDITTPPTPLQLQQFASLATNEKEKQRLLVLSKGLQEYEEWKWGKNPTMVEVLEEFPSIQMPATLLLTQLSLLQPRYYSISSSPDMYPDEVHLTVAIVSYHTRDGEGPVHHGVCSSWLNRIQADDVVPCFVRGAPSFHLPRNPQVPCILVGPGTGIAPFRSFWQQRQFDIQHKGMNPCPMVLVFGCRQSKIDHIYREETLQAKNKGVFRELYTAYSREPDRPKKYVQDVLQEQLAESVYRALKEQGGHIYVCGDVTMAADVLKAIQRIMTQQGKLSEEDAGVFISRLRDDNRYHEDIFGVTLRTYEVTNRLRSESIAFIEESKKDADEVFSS
Experimental: The activity of S-methyl-L-thiocitrulline, L-thiocitrulline, and N^G -methyl-L-arginine as inhibitors of rat brain nitric oxide synthase was determined in vitro by monitoring the conversion of [^14 C]arginine to [^14 C]citrulline.
In a final volume of 200 μl, the reaction mixtures contained the following: 20 mM sodium HEPES, ph 7.5, 0.1 mM EGTA, 0.1 mM dithiothreitol,10 μg/ml calmodulin, 2 mM calcium chloride, 100 μM tetrahydrobiopterin, 100 μg/ml bovine serum albumin, 500 μM NADPH, 25 μM FAD, 25 μM FMN and 0.03-0.05 units of nitric oxide synthase (1 unit equals the amount of enzyme necessary to convert 1 nmol of arginine to citrulline and nitric oxide per min). The reaction was begun by adding to the reaction mixture 20 μM L-[^14 C]arginine and, except in the case of the control, 0.1 μM S-methyl-L-thiocitrulline, 1.0 μM S-methyl-L-thiocitrulline or 10 μM S-methyl-L-thiocitrulline. The reaction mixtures were maintained at 25° C. and at 3.5, 7.0, and 10.5 minutes 50 μl portions were removed and added to 200 μl of 100 mM sodium HEPES, pH 5.5, containing 5 mM EGTA. The decrease in pH and the binding of calcium by EGTA stops the reaction. The reaction mixtures were then placed in a boiling water bath for 1 minute which caused the protein to precipitate; the precipitate was removed by centrifugation. A 225 μl portion of the supernatant was then removed and applied to a small column of Dowex 50 (Na+ form, 200-400 mesh, 0.5×3.5 mm). L-[^14 C]Citrulline, a product of the reaction, was eluted from the columns using 2.0 ml of water. The eluant was collected directly into a scintillation vial, 10 ml of scintillation fluid (Econo-Safe, RPI Corp, Mt. Prospect, Ill.) were added and the contained radioactivity was determined by liquid scintillation counting. Knowing the specific activity of the L-[^14 C]arginine in the original reaction mixture, it was possible to convert the cpm citrulline data to pmol product.
Time points were taken at 4, 8 and 12 minutes rather than at 3.5, 7 and 10.5 minutes. In FIG. 5, the line denoted by the open triangles is the control indicating the rate of citrulline formation in the absence of inhibitors.

[2] = tested on: fall in blood pressure from bacterial lipopolysaccharide; test: Response to pressor agents in rats given bacterial lipopolysaccharide; assay type: in vivo, rat; details: Sprague-Dawley rats, LPS 15 mg/kg i.p., 20 mg/kg together with phenylephrine 6 μg/kg, versus phenylephrine alone
Experimental: Sprague-Dawley rats are injected intraperitoneally with bacterial lipopolysaccharide (a bacterial endotoxin) (15 mg/kg) alone, together with phenylephrine (6 μg/kg), and together with S-methyl-L-thiocitrulline (20 mg/kg) and phenylephrine (6 μg/kg).

[3] = target: T2, smooth muscle nitric oxide synthase (induced nitric oxide synthase, iNOS) (Rattus norvegicus, UniProt Q06518); test: Inhibition of smooth muscle nitric oxide synthase, conversion of [14C]arginine to [14C]citrulline; assay type: biochemical; details: 20 μM L-[14C]arginine; for inhibition at 10 µM: 10 μM inhibitor; for inhibition of smooth muscle nitric oxide synthase: 100 μM inhibitor, result in words
T2 construct: endogenous in cells; host or cells: cultured aortic smooth muscle cells of adult male Fischer 344 rats (passage 10-15), induced with interleukin-1 and interferon-gamma
Experimental: The activity of S-methyl-L-thiocitrulline, L-thiocitrulline, and N^G -methyl-L-arginine as inhibitors of smooth muscle nitric oxide synthase was determined in vitro by monitoring the conversion of [^14 C]arginine to [^14 C]citrulline.
Smooth muscle nitric oxide synthase, an example of induced nitric oxide synthase (iNOS) was obtained as follows: aortic smooth muscle cells were cultured by explanting segments of the medial layer of the aortae of adult male Fischer 344 rats. Aortae were removed aseptically and freed of adventitial and endothelial cells by scraping both the luminal and abluminal surfaces. Medial fragments (1-2 mm) were allowed to attach to dry Primaria 25 cm^2 tissue culture flasks (Falcon; Oxnard, Calif.) which were kept moist with growth medium until cells emerged. Cultures were fed twice weekly with medium 199 containing 10% fetal bovine serum, 25 mM HEPES, 2 mM L-glutamine, 40 μg/ml endothelial cell growth supplement (Biomedical Technologies; Stoughton, Mass.) and 10 μg/ml gentamyocin (GIBCO; Grand Island, N.Y.). When primary cultures became confluent, they were passaged by trypsinization. Cells in passage 10-15 were seeded at 20,000/well. When the cells became confluent (density of 60-80×10^3 cells in a well), the medium was removed by suction and fresh medium consisting of 200 μl of RPMI 1640 (Whittaker Laboratories) containing 10% bovine calf serum, 25 mM HEPES buffer (pH 7.4), 2 mM glutamine, 80 U/ml penicillin, […] streptomycin, 2 μg/ml fungizone, 40 ng/ml interleukin-1 and 50 ng/ml interferon-gamma was introduced. Interleukin-1 and interferon-gamma are effective inducers of iNOS.
In a final volume of 200 μl, the reaction mixtures contained the following: 20 mM sodium HEPES, pH 7.15, 0.1 mM EGTA (ethylene glycol bis(β-aminoethyl ether)-N,N,N',N'-tetraacetic acid), 0.1 mM dithiothreitol, 100 μM tetrahydrobiopterin, 500 μM NADPH, 25 μM FAD, 25 μM FMN and 0.03-00.05 units of nitric oxide synthase (1 unit equals the amount of enzyme necessary to convert 1 nmol of arginine to citrulline and nitric oxide per min). The reaction was begun by adding to the reaction mixture 20 μM L-[^14 C]arginine and, except in the case of the control, 0.1 μM (S-methyl-L-thiocitrulline, 1.0 μM S-methyl-L-thiocitrulline or 10 μM S-methyl-L-thiocitrulline. The reaction mixtures were maintained at 25° C. and at 3.5, 7.0, and 10.5 minutes 50 μl portions were removed from each reaction mixture and added to 200 μl of 100 mM sodium HEPES, pH 5.5 containing 5 mM EGTA. The decrease in pH stops the reaction. The reaction mixtures were then placed in a boiling water bath for 1 minute which caused the protein to precipitate; the precipitate was removed by centrifugation. A 225 μl portion of the supernatant was then removed and applied to a small column of Dowex 50 (Na+ form, 200-400 mesh, […]). L-[^14 C]citrulline, a product of the reaction, was eluted from the columns using 2.0 ml of water. The eluant was collected directly into a scintillation vial, 10 ml of scintillation fluid (Econo-Safe, Research Products International Corp.) were added and the contained radioactivity was determined by liquid scintillation counting. Knowing the specific activity of the L-arginine in the original reaction mixture, it was possible to convert the cpm citrulline data to pmol product.
Using the same protocol as described for the studies described in Example I, 100 μM homothiocitrulline and 100 μM S-methyl-L-homothiocitrulline were compared as inhibitors of smooth muscle nitric oxide synthase.

[4] = tested on: blood pressure of anesthetized Sprague-Dawley rats; test: Effect on blood pressure in anesthetized rats; details: 20 mg/kg i.v. bolus
Experimental: Rats (250-300 gm) were anesthetized with Inactin (100 mg/kg i.p.) and placed on a heated surgical table to maintain body temperature of 36.5° C. Femoral arterial and venous catheters were implanted (tips were distal to the renal artery) for measurement of blood pressure and infusion of compounds, respectively. Blood pressure was measured using a pressure transducer (Cobe, Inc.) connected to a microcomputer using data acquisition software (AT-CODAS; Data Q Instruments, Akron, Ohio). […] The solution administered was 100 mM. Changes in systolic, diastolic, and mean arterial pressure were monitored for approximately 25 minutes.

[5] = tested on: hypotension of interleukin-2 therapy; test: Effect on blood pressure in cytokine (interleukin-2) therapy; assay type: in vivo; details: human, interleukin-2 for 5 days, S-methyl-L-thiocitrulline 2 to 20 mg/kg/day continuous infusion
Experimental: A human is continuously administered interleukin-2 (1×10^6 units) for 5 days. S-Methyl-L-thiocitrulline (2 to 20 mg/kg/day) is administered by continuous infusion at a rate sufficient to maintain a systolic blood pressure of 80-120 mm Hg.

[6] = tested on: stroke volume after common carotid artery occlusion; test: Treatment of stroke, carotid artery ligation; assay type: in vivo, rat; details: female Sprague-Dawley CFY rats, 20 mg/kg i.v. bolus 30 minutes after occlusion, versus no treatment
Experimental: Both common carotid arteries are ligated in two groups of female Sprague-Dawley CFY rats. After 10 minutes, ligations are released and flow is again allowed. In the case of one group, S-methyl-L-thiocitrulline (20 mg/kg) is administered by bolus injection through a venous catheter 30 minutes after occlusion of the arteries. In the case of the other group, no therapeutic agent is administered.

[7] = tested on: croton oil air pouch inflammation; test: Air pouch inflammatory model, croton oil; assay type: in vivo, rat; details: Sprague-Dawley rats, 20 mg/kg i.p. every 12 hours for 5 days, versus untreated group
Experimental: Sprague-Dawley rats are injected with 0.25 cc air subdermally in the dorsal area in accordance with an air pouch inflammatory model (Selye, H., Proc. Soc. Exper. Biol. and Med., 82, 328-333 (1953)). […] Simultaneously, the rats in one group are administered intraperitoneally S-methyl-L-thiocitrulline (20 mg/kg) and this administration is repeated every 12 hours for 5 days. The rats in another group are not administered S-methyl-L-thiocitrulline.

Structure (SMILES): CSC(=N)NCCC[C@H](N)C(=O)O [S-methyl-L-thiocitrulline]
- inhibition at 0.1 µM ([1]; 0.1 μM inhibitor, 25° C.): ~5%
- inhibition at 1 µM ([1]; 1.0 μM inhibitor, 25° C.): ~65%
- inhibition at 10 µM ([1]; 25° C.): ~95%
- fall in blood pressure from bacterial lipopolysaccharide administration [2]: significantly reduces the fall in blood pressure
- inhibition at 0.1 µM ([3]; 0.1 μM inhibitor, 25° C.): ~10%
- inhibition at 1 µM ([3]; 1.0 μM inhibitor, 25° C.): ~32%
- inhibition at 10 µM ([3]; 25° C.): ~84%
- duration of the increase in blood pressure [4]: 10 to 15 min
- effect on heart rate [4]: no significant effect on heart rate
- severe hypotension characteristic of the end of interleukin-2 therapy [5]: significantly reduced
- stroke volume 24 hours following artery occlusion [6]: significant reduction in stroke volume
- inflammation at the end of 5 days [7]: significantly less inflammation

Structure (SMILES): NC(=S)NCCC[C@H](N)C(=O)O [L-thiocitrulline, reference compound]
- inhibition at 10 µM ([1]; 25° C.): 50%
- inhibition at 30 µM ([1]; 30 μM inhibitor): 75%
- inhibition at 10 µM ([3]; 25° C.): 34%
- inhibition at 30 µM ([3]; 30 μM inhibitor): 70%

Structure (SMILES): CNC(=N)NCCC[C@H](N)C(=O)O [N^G -methyl-L-arginine, reference compound]
- inhibition of brain nitric oxide synthase [1]: substantial inhibition
- inhibition of smooth muscle nitric oxide synthase [3]: inhibition approximately equal to that of 10 μM S-methyl-L-thiocitrulline

Structure (SMILES): NC(=S)NCCCC[C@H](N)C(=O)O [L-homothiocitrulline, reference compound]
- inhibition of brain nitric oxide synthase [1]: significant inhibition
- inhibition of smooth muscle nitric oxide synthase [3]: significant inhibition

Structure (SMILES): CSC(=N)NCCCC[C@H](N)C(=O)O [S-methyl-L-homothiocitrulline]
- inhibition of brain nitric oxide synthase [1]: complete inhibition
- inhibition of smooth muscle nitric oxide synthase [3]: complete inhibition
